Laboratory results published in US7022311B1, “Powdery inhalational preparations and process for producing the same” (Kaken Pharmaceutical Co., Ltd., priority 1999, dated 2006).
Counter-ions that a name gives are not always drawn. Square brackets hold non-standard residues; d marks the D form. Peptide text beside a SMILES is read from it. d2Nal = N[C@H](Cc1ccc2ccccc2c1)C(=O)O

Legend:
[1] = Moisture absorption test (hygroscopic properties) of test carriers; format: physicochemical; set-up: key to % Moisture Absorption: x: Not possible to measure (because the samples deliquesced.); conditions: for % Moisture Absorption: 25° C.; for Hygroscopicity, result in words: moisture absorption tests, comparison of carriers
Experimental: For the objective of selecting a material suitable as the carrier for a dry powder inhalation, moisture absorption tests were performed on erythritol, xylitol, lactose, D-mannitol, Amalty, glucose, Stevia, Benecoat and aspartame. […] (Tables 1, 2, and 3)
In order to ascertain that trehalose is a material having properties suitable as a carrier for dry powder inhalations, it was compared to lactose, a well-known carrier for dry powder inhalation. A test was carried out for comparing hygroscopicity. The trehalose used was the product of Asahi Kasei Kogyo KK, and Lactose 325M from the DMV Company. […] (Table 4, 5)

[2] = In vitro lung delivery fraction test with multi-stage cascade impactor (Andersen sampler, Jethaler); format: physicochemical; conditions: Example 11: Pralmorelin dihydrochloride 5.0%, carrier erythritol 93.5%, micronized lactose 1.5%, 28.3 L/min
Experimental: Capsulated preparations (The Japanese Pharmacopeia No. 2 HPMC capsules: manufactured by Shionogi Qualicaps Co., Ltd.) which were filled with about 40 mg each of three dry powder inhalations were prepared and mounted on an inhaler device (Jethaler; Unisia Jecs Corp.) The Jethaler was then attached to the mouthpiece of a cascade impactor (Andersen sampler Model AN-200) and inspired at a flow rate of 28.3 L/min., thereby dispersing the micronized medication in the capsule and measuring the residual active ingredient in the capsule and in the inhaler device as well as the distribution of the active ingredient at each stage with liquid chromatography. It was confirmed that in the in vitro test with cascade impactor, the lung delivery fraction at stages 2–7 corresponding to the respiring fraction differed substantially depending on the different carrier particles.
(§1) Capsulated preparations (The Japanese Pharmacopeia No. 2HPMC capsules: manufactured by Shionogi Qualicaps Co., Ltd.), which were filled with about 40 mg each of three dry powder inhalations, were prepared and mounted on an inhaler device (Jethaler®; Unisia Jecs Corp.). The Jethaler® brand device was then attached to the mouthpiece of a cascade impactor (Andersen sampler; Model AN-200) and inspired at a flow rate of 28.3 L/min., thereby dispersing the dry powder inhalation in the capsule and measuring the residual active ingredient in the capsule and in the inhaler device as well as the distribution of the active ingredient at each stage with liquid chromatography.
(§2) A capsulated preparation (The Japanese Pharmacopeia No. 2HPMC capsules: manufactured by Shionogi Qualicaps Co., Ltd.) which was filled with about 40 mg of the prepared dry powder inhalations was prepared and mounted on an inhaler device (Jethaler; Unisia Jecs Corp.) The Jethaler was then attached to the mouthpiece of a cascade impactor (Andersen sampler; Model AN-200) and inspired at a flow rate of 28.3 L/min., thereby dispersing the dry powder inhalation in the capsule and measuring the residual active ingredient in the capsule and in the inhaler device as well as the distribution of the active ingredient at each stage with liquid chromatography.
as §1, with “A capsulated preparation (The” for “Capsulated preparations (The”, “which was” for “which were”, “mg” for “mg each”, “chromatography. […]” for “chromatography.”
as §2, with “2 HPMC” for “2HPMC”, “Ltd.)” for “Ltd.) which was”, “inhalation” for “inhalations”

[3] = Table 4, Humidity 60%, 24 Hours
[4] = Table 4, Humidity 60%, 72 Hours
[5] = Table 4, Humidity 60%, 168 Hours
[6] = Table 4, Humidity 60%, 366 Hours
[7] = Table 5, Humidity 75%, 48 Hours
[8] = Table 5, Humidity 75%, 72 Hours
[9] = Table 5, Humidity 75%, 168 Hours
[10] = Table 2, Humidity 75%, 24 Hours
[11] = Table 2, Humidity 75%, 48 Hours
[12] = Table 2, Humidity 75%, 72 Hours
[13] = Table 2, Humidity 75%, 168 Hours
[14] = Table 3, Humidity 90%, 16 Hours
[15] = Table 3, Humidity 90%, 24 Hours
[16] = Table 3, Humidity 90%, 48 Hours
[17] = Table 3, Humidity 90%, 72 Hours
[18] = Table 3, Humidity 90%, 168 Hours
[19] = Table 1, Humidity 60%, 24 Hours
[20] = Table 1, Humidity 60%, 72 Hours
[21] = Table 1, Humidity 60%, 168 Hours
[22] = Table 1, Humidity 60%, 366 Hours
[23] = Table 2, Humidity 75%, 336 Hours

| Structure (SMILES) | % Moisture Absorption [1, 10] | % Moisture Absorption [1, 11] | % Moisture Absorption [1, 12] | % Moisture Absorption [1, 13] | % Moisture Absorption [1, 14] | % Moisture Absorption [1, 15] | % Moisture Absorption [1, 16] | % Moisture Absorption [1, 17] | % Moisture Absorption [1, 18] | % Moisture Absorption [1, 19] | % Moisture Absorption [1, 20] | % Moisture Absorption [1, 21] | % Moisture Absorption [1, 22] | % Moisture Absorption [1, 23] | further results |
| --- | --- | --- | --- | --- | --- | --- | --- | --- | --- | --- | --- | --- | --- | --- | --- |
| OC[C@H]1O[C@H](O[C@H]2O[C@H](CO)[C@@H](O)[C@H](O)[C@H]2O)[C@H](O)[C@@H](O)[C@@H]1O [Trehalose] |  |  |  |  |  |  |  |  |  |  |  |  |  |  | % Moisture Absorption [1, 3]: 0.000%; % Moisture Absorption [1, 4]: 0.000%; % Moisture Absorption [1, 5]: 0.000%; % Moisture Absorption [1, 6]: 0.000%; % Moisture Absorption [1, 7]: 0.008%; % Moisture Absorption [1, 8]: 0.023%; % Moisture Absorption [1, 9]: 0.020%; Hygroscopicity, result in words [1]: only slightly hygroscopic |
| C[C@H](NC(=O)[C@@H](Cc1ccc2ccccc2c1)NC(=O)[C@@H](C)N)C(=O)N[C@@H](Cc1c[nH]c2ccccc12)C(=O)N[C@H](Cc1ccccc1)C(=O)N[C@@H](CCCCN)C(N)=O [Pralmorelin dihydrochloride, reference compound] (H-[dA][d2Nal]AW[dF]K-NH2) |  |  |  |  |  |  |  |  |  |  |  |  |  |  | Residual and Distributed Fractions of Active Ingredient (%): Capsule [2]: 3.6%; Residual and Distributed Fractions of Active Ingredient (%): Inhaler device [2]: 11.5%; Residual and Distributed Fractions of Active Ingredient (%): Stage 0 [2]: 7.7%; Residual and Distributed Fractions of Active Ingredient (%): Stage 1 [2]: 26.6% |
| OC[C@@H](O)[C@@H](O)[C@H](O)[C@H](O)CO [D-Mannitol] | 0.019% | 0.019% | 0.019% | 0.028% | 0.539% | 0.672% | 0.806% | 0.916% | 1.122% |  |  |  |  |  |  |
| OC[C@@H](O)[C@@H](O[C@H]1O[C@H](CO)[C@@H](O)[C@H](O)[C@H]1O)[C@H](O)[C@@H](O)CO [Amalty] | 0.478% | 1.138% | 1.171% | 1.252% | 0.775% | 0.971% | 2.513% | 3.373% | 8.391% |  |  |  |  |  |  |
| COC(=O)[C@H](Cc1ccccc1)NC(=O)[C@@H](N)CC(=O)O [Aspartame] (H-Asp-Phe-OMe) | 6.539% | 10.877% | 10.985% | 11.163% | 10.476% | 10.741% | 11.448% | 11.521% | 11.749% |  |  |  |  |  |  |

Second part, led by results:

| % Moisture Absorption [1, 10] | % Moisture Absorption [1, 11] | % Moisture Absorption [1, 12] | % Moisture Absorption [1, 13] | % Moisture Absorption [1, 14] | % Moisture Absorption [1, 15] | % Moisture Absorption [1, 16] | % Moisture Absorption [1, 17] | % Moisture Absorption [1, 18] | % Moisture Absorption [1, 19] | % Moisture Absorption [1, 20] | % Moisture Absorption [1, 21] | % Moisture Absorption [1, 22] | % Moisture Absorption [1, 23] | Structure (SMILES) | further results |
| --- | --- | --- | --- | --- | --- | --- | --- | --- | --- | --- | --- | --- | --- | --- | --- |
| 0.087% | 0.104% | 0.126% | 0.124% |  | 3.796% | 17.917% | x | x | 0.000% | 0.000% | 0.019% | 0.021% | 0.126% | OC[C@@H](O)[C@H](O)[C@@H](O)CO [Xylitol] |  |
| 0.008% | 0.011% | 0.014% | 0.010% |  | 0.055% | 0.070% | 0.070% | 0.070% | 0.000% | 0.000% | 0.000% | 0.000% | 0.012% | OC[C@@H](O)[C@@H](O)CO [Erythritol] | Hygroscopicity, result in words [1]: least hygroscopic |
| 0.029% |  | 0.031% | 0.033% |  | 0.094% |  | 0.090% | 0.092% | 0.000% | 0.000% | 0.000% | 0.000% | 0.031% | OC[C@H]1O[C@@H](O[C@H]2[C@H](O)[C@@H](O)C(O)O[C@@H]2CO)[C@H](O)[C@@H](O)[C@H]1O (stereo partly shown) [Lactose 325M, Lactose] | % Moisture Absorption [1, 3]: 0.000%; % Moisture Absorption [1, 4]: 0.000%; % Moisture Absorption [1, 5]: 0.000%; % Moisture Absorption [1, 6]: 0.000%; % Moisture Absorption ([1]; Table 5, Humidity 75%, 16 Hours): 0.029%; % Moisture Absorption [1, 7]: 0.031%; % Moisture Absorption [1, 8]: 0.033%; % Moisture Absorption [1, 9]: 0.031% |
